≈ marks a conversion by molar mass, not a printed value. Where “and” joins values, the source holds several entries; their conditions need not be identical. Equal values may be shown once.
Columns and labels:
MLP2 = experiment: ANS displacement assay; assay type: binding, Papaver somniferum
Source text: (§1) Eluates were store separately on ice.
(§2) Displacement of ANS is associated with reduced fluorescence.

PR10-12 = experiment: ANS displacement assay; assay type: binding, Papaver somniferum
Source text: as §1, §2

PR10-4 = experiment: ANS displacement assay; assay type: binding, Papaver somniferum
Source text: as §1, §2

[1] = Ligand solubility threshold in ITC buffer; assay type: physicochemical; settings: filtered dialysis buffer (CBS, 21 °C, aqueous buffer, thermodynamic from solid); pH 5.5, ITC buffer
Experimental: ITC experiments were conducted using a Microcal VP instrument (Malvern Pananalytical, Malvern, UK). Recombinant MLP/PR10 protein preparation involving production in Escherichia coli followed by cobalt-affinity chromatography was optimized to yield relatively high purity in a single step as determined by SDS-PAGE and colloidal Coomassie blue silver staining. The less than 48 h decrease in atmospheric oxygen exposure generated high-quality proteins with reduced precipitate. […] Eluates were twice dialysed to equilibrium (i.e., 10–12 h at 4 °C) against a 1000-fold (2–4 L) volume of PBS, pH 7.4 (25 mM sodium phosphate, 50 mM NaCl) or CBS, pH 5.5, resulting in a theoretical million-fold dilution of undesired small molecules (e.g., <0.2 µM imidazole). […] Any precipitate was separated from the remaining soluble protein fraction which was quantified by absorption at A280nm and diluted with filtered dialysis buffer immediately before use.
Thermograms were recorded at 25 °C, with a reference power of 10 (dpu/sec) and monitoring of 30 injections of 9 µl BIA ligand solutions into a sample cell containing 1.4 ml of an MLP/PR10 protein solution, with 300 seconds between injections. […] After subtraction, binding isotherms were analyzed in MicroCal Origin 7 (MicroCal, USA) by fitting a single-site binding model using non-linear least squares regression analysis repeated until convergence. […]

THS2 = THS2 (Papaver somniferum, UniProt A0A2U9GGW3); experiment: ANS displacement assay
Chain of THS2 (A0A2U9GGW3 whole entry): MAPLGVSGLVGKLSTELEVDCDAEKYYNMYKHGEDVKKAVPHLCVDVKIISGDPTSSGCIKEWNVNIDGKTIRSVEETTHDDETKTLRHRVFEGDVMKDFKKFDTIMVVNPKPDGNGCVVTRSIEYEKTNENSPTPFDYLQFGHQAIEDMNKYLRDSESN
Experimental: (§4) 8-anilino-1-naphthalenesulfonic acid (ANS) fluorescence binding curves and the binding-induced reduction in ANS fluorescence resulting from competition with tested ligands across a range of concentration facilitated the measurement of IC50 and an estimate of Kd values using the binding models and procedures described previously[70]. […] ANS was dissolved in dimethylsufoxide at a concentration of 20 mM, stored at −20 °C until dilution and protected from exposure to light. […] 40 µl of the ANS solution and 40 µl of each MLP/PR10 protein solution were combined to 80 µl final reaction volumes, which were incubated at 21 °C for 10 min to allow equilibration of binding. Triplicate 18-µl aliquots were withdrawn from each 80 µl reaction, transferred to optically clear PCR tubes (Diamed, Canada) and ANS fluorescence was measured following an additional 3-min incubation at 30 °C using a Qiagen Rotor-gene Q 6-plex with excitation and emission filters of 365 ± 20 nm and 460 ± 20 nm, respectively. An identical reaction series whereby protein was omitted from the mixtures was measured under identical conditions and trace fluorescence was subtracted from each MLP/PR10 protein-containing sample. Each data set was scaled so that the maximum observed fluorescence corresponded to 100% and individual data points were plotted, and a rectangular hyperbolic ligand binding function was fit, using least-squares analysis (Prism 5 software, Graphpad, USA). Experiments were repeated at least twice with independently prepared protein.
(§5) Displacement of ANS is associated with reduced fluorescence. […] Briefly, 40 µl of 20 µM ANS and individual MLP/ PR10 protein solutions were combined in CBS buffer, pH 5.5, incubated at 21 °C for 5 min, mixed with 40 µl of separate 0 to 6 mM BIA solutions in CBS buffer, pH 5.5, and the 80 µl reactions were subsequently incubated for 10 min at 21 °C. Fluorescence was measured as described above, including subtraction of any fluorescence in a blank series whereby protein was omitted. […] Each experiment was repeated at least twice with independently prepared MLP/PR10 proteins and BIA ligand.

NISO = NISO (Papaver somniferum, UniProt P0DYP9); experiment: ANS displacement assay
Chain of NISO (P0DYP9 entry or part of it): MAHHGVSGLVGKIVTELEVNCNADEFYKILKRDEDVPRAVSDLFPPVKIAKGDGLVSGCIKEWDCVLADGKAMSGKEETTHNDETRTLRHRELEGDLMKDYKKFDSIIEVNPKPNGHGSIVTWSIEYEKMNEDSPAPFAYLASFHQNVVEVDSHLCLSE
Experimental: as §4, §5

MLP15 [2] = target: T1, MLP15 (Papaver somniferum, UniProt P19825); experiment: ANS displacement assay
T1 sequence (P19825 1-159): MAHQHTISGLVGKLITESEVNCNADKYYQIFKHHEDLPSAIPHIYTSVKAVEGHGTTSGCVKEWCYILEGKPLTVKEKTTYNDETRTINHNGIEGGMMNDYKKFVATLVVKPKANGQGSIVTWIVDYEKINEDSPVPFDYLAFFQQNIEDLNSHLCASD
Experimental: as §4, §5

MLP15 [3] = target: T1, MLP15; experiment: Isothermal titration calorimetry; assay type: binding; design: made in house; host or cells: E. coli ArcticExpress (DE3); settings: ITC thermogram, injections into buffer and MLP15
Experimental: ITC experiments were conducted using a Microcal VP instrument (Malvern Pananalytical, Malvern, UK). […] Dialysis was carried out in boiled Spectra/Por 1 6–8 kDa MWCO 0.32 ml/cm (Spectrum Labs, USA) tubing thoroughly washed with either buffer before use. The second 1000-fold volume of dialysis buffer was filtered and degassed using a reusable bottle-top filtration apparatus (Nalgene, USA) with disposable […] cellulose filters (VWR, Canada) prior to storage at 4 °C. Ligands were dissolved in the filtered dialysis buffer at 21 °C for approximately one hour, and any insoluble material was removed by repeated centrifugation at 21,000 × g for 10 min. […] Prior to ITC, which was initiated immediately following dialysis, the protein solutions were centrifuged at 17,000 × g and 4 °C for 30 min. Any precipitate was separated from the remaining soluble protein fraction which was quantified by absorption at A280nm and diluted with filtered dialysis buffer immediately before use.
(§3) Thermograms were recorded at 25 °C, with a reference power of 10 (dpu/sec) and monitoring of 30 injections of 9 µl BIA ligand solutions into a sample cell containing 1.4 ml of an MLP/PR10 protein solution, with 300 seconds between injections. […] To ensure that we report only the heat of reaction for each interaction, independent titrations of ligand into buffer, and buffer into protein solutions, were used to calculate and then subtract heats of dilution. After subtraction, binding isotherms were analyzed in MicroCal Origin 7 (MicroCal, USA) by fitting a single-site binding model using non-linear least squares regression analysis repeated until convergence. […] Each ITC experiment was repeated 2 to 4 times.

PR10-10 = target: T2, PR10-10 (Papaver somniferum, UniProt A0A9Y2YA81); experiment: Isothermal titration calorimetry; assay type: binding; settings: ITC, CBS pH 5.5, printed in brackets beside *, read-out: Kd (estimate, low enthalpy system)
T2 sequence (A0A9Y2YA81 1-158): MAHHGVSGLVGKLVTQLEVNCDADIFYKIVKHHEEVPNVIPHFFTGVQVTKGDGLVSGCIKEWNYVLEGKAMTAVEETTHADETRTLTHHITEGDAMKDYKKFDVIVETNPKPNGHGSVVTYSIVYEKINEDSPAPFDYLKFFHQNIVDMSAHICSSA
Experimental: ITC experiments were conducted using a Microcal VP instrument (Malvern Pananalytical, Malvern, UK). […] Eluates were twice dialysed to equilibrium (i.e., 10–12 h at 4 °C) against a 1000-fold (2–4 L) volume of PBS, pH 7.4 (25 mM sodium phosphate, 50 mM NaCl) or CBS, pH 5.5, resulting in a theoretical million-fold dilution of undesired small molecules (e.g., <0.2 µM imidazole). Dialysis was carried out in boiled Spectra/Por 1 6–8 kDa MWCO 0.32 ml/cm (Spectrum Labs, USA) tubing thoroughly washed with either buffer before use. The second 1000-fold volume of dialysis buffer was filtered and degassed using a reusable bottle-top filtration apparatus (Nalgene, USA) with disposable […] cellulose filters (VWR, Canada) prior to storage at 4 °C. Ligands were dissolved in the filtered dialysis buffer at 21 °C for approximately one hour, and any insoluble material was removed by repeated centrifugation at 21,000 × g for 10 min. […] Prior to ITC, which was initiated immediately following dialysis, the protein solutions were centrifuged at 17,000 × g and 4 °C for 30 min. Any precipitate was separated from the remaining soluble protein fraction which was quantified by absorption at A280nm and diluted with filtered dialysis buffer immediately before use.
as §3

[4] = 10 µM protein and 10 µM ANS, CBS pH 5.5
[5] = from average IC50 and PR10-ANS Kd, competitive inhibition assumed, read-out: Estimated Kd

Structure (SMILES): COc1ccc2c(c1OC)C(=O)O[C@@H]2[C@H]1c2c(cc3c(c2OC)OCO3)CCN1C [Noscapine, noscapine]
- IC50 (MLP2; [4]): ~40.4 µM
- Log10IC50 (MLP2; [4]): ~ 1.61 ± 0.07
- Kd (MLP2; [5]): ~29.9 µM
- IC50 (PR10-12; [4]): ~4.18 µM
- Log10IC50 (PR10-12; [4]): ~ 0.62 ± 0.17
- Kd (PR10-12; [5]): ~4.07 µM
- IC50 (PR10-4; [4]): ~126 µM
- Log10IC50 (PR10-4; [4]): ~ 2.102 ± 0.59
- Kd (PR10-4; [5]): ~116 µM
- solubility [1]: 1100 µM (≈ 455 µg/mL)
- Kd (THS2): ~9.66 µM
- IC50 (THS2; IC50, THS2, 10 µM protein and 10 µM ANS, CBS pH 5.5): 14 µM and ~14.3 µM
- Log10IC50 (THS2; THS2, 10 µM protein and 10 µM ANS, CBS pH 5.5): ~ 1.16 ± 0.48
- Hill Slope (THS2; THS2, ANS displacement dose-response fit): ~ -1.13 ± 0.78
- Kd (NISO): 56.7 µM
- IC50 (NISO; IC50, NISO, 10 µM protein and 10 µM ANS, CBS pH 5.5): 66 µM and 66.1 µM
- Log10IC50 (NISO; NISO, 10 µM protein and 10 µM ANS, CBS pH 5.5): 1.82 ± 0.07
- Hill Slope (NISO; NISO, ANS displacement dose-response fit): -5.05 ± 6.55
- Kd (MLP15 [2]): 37.8 µM
- IC50 (MLP15 [2]; IC50, MLP15, 10 µM protein and 10 µM ANS, CBS pH 5.5): 43 µM and 42.6 µM
- Log10IC50 (MLP15 [2]; MLP15, 10 µM protein and 10 µM ANS, CBS pH 5.5): 1.63 ± 0.04
- Hill Slope (MLP15 [2]; MLP15, ANS displacement dose-response fit): -1.18 ± 0.10
- endothermic positive peaks during the initial injections (MLP15 [3]): > 0.2 µcal/s
- exothermic heat-change plateau of the final injections (MLP15 [3]): -0.48 µcal/s

Structure (SMILES): COc1cc2c(cc1OC)[C@@H]1Cc3ccc(OC)c(OC)c3CN1CC2 [Tetrahydropalmatine]
- Kd (PR10-10): 180 ± 133 µM

Reference: paper PMC9646721, “Alkaloid binding to opium poppy major latex proteins triggers structural modification and functional aggregation” (Nature Communications, 2022)
